Measured values as given in patent publication US12630536B2, “Cyanotriazine derivative, preparation method therefor, and application thereof” (Chengdu Fanxi Biopharma Co., LTD., priority 2020, dated 2026).

How the values were obtained:
[1] = target: T1, THR-β ligand-binding domain (H6-THR-β) (Homo sapiens, UniProt P10828); assay: Co-activated peptide recruitment test of THR-β/RXR/GRIP1 (TR_LBD agonist detection, HTRF); type: biochemical
T1 construct: made in house; host or cells: Escherichia coli BL21 (DE3), vector pET28a
T1 sequence (P10828 217-461 limits assumed): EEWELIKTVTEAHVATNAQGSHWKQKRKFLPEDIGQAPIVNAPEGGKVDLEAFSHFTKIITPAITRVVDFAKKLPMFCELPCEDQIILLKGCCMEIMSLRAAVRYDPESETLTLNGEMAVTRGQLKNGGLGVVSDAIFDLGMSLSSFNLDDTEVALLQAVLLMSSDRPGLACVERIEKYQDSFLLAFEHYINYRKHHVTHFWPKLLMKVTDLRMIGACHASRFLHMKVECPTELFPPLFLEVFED
T1 sequence (P19793 225-462 partner limits assumed): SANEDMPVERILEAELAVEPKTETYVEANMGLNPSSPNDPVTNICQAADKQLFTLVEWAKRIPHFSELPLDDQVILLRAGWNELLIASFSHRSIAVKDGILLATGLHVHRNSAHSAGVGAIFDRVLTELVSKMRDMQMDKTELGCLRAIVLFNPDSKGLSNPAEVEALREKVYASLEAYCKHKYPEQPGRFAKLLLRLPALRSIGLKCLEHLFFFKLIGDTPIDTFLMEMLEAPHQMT
T1 sequence (Q15596 679-703 partner limits assumed): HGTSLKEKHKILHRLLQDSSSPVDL
Procedure: A ligand binding domain of THR-β (amino acids 148-410) (H6-THR-β) and a ligand binding domain of THR-α (amino acids 202-461) (H6-TRα) were cloned into E. coli expression vector pET28a (Novagen, Milwaukee, Wis.) containing N-terminal six His sequences. The resulting recombinant six-His-tagged protein was produced in E. coli BL21(DE3) cells. The cells were grown in Terrific Broth (self-used self-prepared Bacto tryptone (3.3%, w/v), Difico yeast extract (2.0%, w/v) and NaCl (0.5%, w/v) medium), incubated at 25° C. for 24 hours using a shake flask in 0.2 mM IPTG, harvested or dissolved with 5 volumes of buffer A (0.05 M Tris, 0.3 M NaCl, 1% W/V betaine, 0.01 M imidazole, 0.02 M b-mercaptoethanol, pH 8.0). Lysozyme (1.0 mg/ml, Sigma) and CompleteProtease Inhibitor Cocktail (Roche Diagnostics Gmbh) were added to the slurry and the solution was sonicated for one minute and 5 times at 4° C. The suspension was centrifuged at 127,300 RCF for 2 hours in a Ti45 Beckmann rotor and the supernatant was loaded onto an NI NTAAgarose (Quigen 30210) column. After washing with the buffer A, […] or H6-THR-α was eluted with the buffer A containing 0.25 M imidazole.
30 microliters of H6-THR-β (50 nM) or H6-THR-α in 50 mM Hepes, pH 7.0, 1 mM DTT, 0.05% NP40 and 0.2 mg/ml BSA (binding buffer) were mixed with an equal volume of EE-RxRα (50 nM) in the binding buffer. […] Aliquot ([…]) was transferred to a 384-well black microtiter plate. HTRF signal was read on a Victor5 reader (PerkinElmer Life and Analytical Sciences). EC50 was calculated.
Gene clones expressing a ligand-binding domain (amino acids 148-410) of THR-β (H6-THR-β) and a ligand-binding domain (amino acids 202-461) of THR-α (H6-THR-α) were inserted into an Escherichia coli expression vector pET28a, and the expression vector contained one N-terminal 6-His sequence. The expression vector was introduced into an Escherichia coli BL21 (DE3) strain to produce a recombinant protein with a His tag. […] After finishing culturing, a bacterium in culture was collected, and the collected bacterium was resuspended with a lysis solution (0.05 M Tris, 0.3 M NaCl, 1% W/V betaine, 0.01 M imidazole, 0.02 M β-mercaptoethanol, and pH 8.0) with a volume 5 times that of the bacterium, and lysozyme and protease inhibitors were added at the same time, the treated bacteria was subjected to ultrasonic lysis (5 times per minute) in ice bath (4° C.). A lysed suspension was centrifuged at 127300 RCF for 2 hours, a supernatant was loaded on a NI_NTA agarose (Quigen 30210) column, and after washing with a buffer A, an H6-TRβ or H6-TRα protein was eluted with the buffer A containing 0.25 M imidazole.
A human retinol X receptor (amino acid 225-462) (RxRα) was subjected to engineering modification, so that an N-terminal of the human retinol X receptor had His6 and EE(EFMPME) tags, and then the human retinol X receptor was cloned into a pACYC vector, and produced a His6 EEtagged protein in Escherichia coli. IPTG with a final concentration of 0.1 mM was added into the culture medium for induction, and cultured in a shaking flask at 18° C. for 18 hours. After finishing culturing, a bacterium in culture was collected, and the collected bacterium was re-suspended with a lysis solution (0.05 M Tris, 0.3 M NaCl, 1% W/V betaine, 0.01 M imidazole, 0.02 β-mercaptoethanol, and pH 8.0) with a volume 5 times that of the bacterium, lysozyme and protease inhibitors were added at the same time, and stirred at 4° C. for 30 minutes. Then, a suspension was subjected to an ultrasonic treatment at 4° C. for 30 seconds for 5 times. The suspension was collected, and centrifuged at 12000 RCF for 20 minutes. A supernatant was collected, and the supernatant was filtered with a membrane with a pore size of 0.45 μm, and then added with 0.5% NP-40.

[2] = test system: TR alpha-UAS-bla HEK 293T Cells; assay: TR cell-based agonist detection, β-lactamase reporter (LiveBLAzer FRET B/G), TR alpha
Procedure: A method for testing a THR-α/β activation activity of a compound by an in-vitro cell level was as follows.
Compounds were transferred to a 384-well plate by an ECHO liquid workstation, and each compound was diluted by 3 times with 10 gradient concentrations, which was in triplicate. 1.5×10^4 DMEM-cultured cells (TR beta-UAS-bla HEK 293T Cells) or 1.0×10^4 TR alpha-UAS-bla HEK 293T Cells were placed in the 384-well plate. HEK 293T-TR beta was incubated in an incubator for 16 hours, and HEK 293T-TR alpha was incubated in an incubator for 24 hours. A LiveBLAzer™-FRET B/G (CCF4-AM) substrate was added into the cell plate to detect expression of β-lactamase in cells, and under excitation of 409 nm, a product produced fluorescence with a wavelength of 447 nm. When the β-lactamase was not expressed, under excitation of 409 nm, fluorescence with a wavelength of 520 nm was directly produced through FRET. Combination between the compound and the protein was determined by detecting a ratio of the two kinds of fluorescence (blue/green, 460 nm/530 nm), thus calculating EC50 of the compound. […] Calculation of a factor Z (greater than 0.5) would be used for monitoring a stability of each experiment.

EC50 ([1]; Detection of TR_LBD agonist, read-out: TR_beta_EC50): 4.96 nM
Maximum activity ratio (A520/A495) ([1]; TR_LBD agonist, TR_β): 4.02
Measurement of cpd/T3 (maximum ratio) ([1]; TR_LBD agonist, TR_β, maximum relative to T3): 73.4%
α/β ([1]; TR_LBD agonist, ratio TR_α EC50 / TR_β EC50): 7.13
Structure (SMILES): Cn1cnc2ccc(Oc3c(Br)cc(-n4nc(C#N)c(=O)[nH]c4=O)cc3Br)cc21 [Compound 1, 2-(3,5-dibromo-4-((1-methyl-1H-benzo[d]imidazol-6-yl)oxy)phenyl)-3,5-dioxo-2,3,4,5-tetra hydro-1,2,4-triazine-6-carbonitrile]
Emax ([2]; Homo sapiens, HEK-293T, 24 h, TR_cell-based agonist, TR_α, read-out: Maximum activity ratio): 205%
EC50 ([2]; Homo sapiens, Detection of TR_cell-based agonist, HEK 293T-TR alpha, 24 hours, read-out: TR_α_EC50): 4320 nM
Test cpd/T3 (maximum ratio) ([2]; TR_cell-based agonist, TR_α, maximum relative to T3): 93.2%
